# In US20060063759A1, “Tricyclic steroid hormone nuclear receptor modulators” (priority 2002, published 2006):
# Tests used:
# glucocorticoid receptor = biological target: T1, glucocorticoid receptor (Homo sapiens, UniProt P04150); assay: Glucocorticoid Receptor Binding Assay ([3H]-dexamethasone, A549 cell extract); conditions: [3H]-dexamethasone binding, read-out: GR Ki
# T1 construct: containing 50-200 ug of A549 cell extract and 1.86 nM [^3H]-dexamethasone; host or cells: A549 human lung epithelial cells (sonicated cell extract)
# T1 sequence (P04150 1-777): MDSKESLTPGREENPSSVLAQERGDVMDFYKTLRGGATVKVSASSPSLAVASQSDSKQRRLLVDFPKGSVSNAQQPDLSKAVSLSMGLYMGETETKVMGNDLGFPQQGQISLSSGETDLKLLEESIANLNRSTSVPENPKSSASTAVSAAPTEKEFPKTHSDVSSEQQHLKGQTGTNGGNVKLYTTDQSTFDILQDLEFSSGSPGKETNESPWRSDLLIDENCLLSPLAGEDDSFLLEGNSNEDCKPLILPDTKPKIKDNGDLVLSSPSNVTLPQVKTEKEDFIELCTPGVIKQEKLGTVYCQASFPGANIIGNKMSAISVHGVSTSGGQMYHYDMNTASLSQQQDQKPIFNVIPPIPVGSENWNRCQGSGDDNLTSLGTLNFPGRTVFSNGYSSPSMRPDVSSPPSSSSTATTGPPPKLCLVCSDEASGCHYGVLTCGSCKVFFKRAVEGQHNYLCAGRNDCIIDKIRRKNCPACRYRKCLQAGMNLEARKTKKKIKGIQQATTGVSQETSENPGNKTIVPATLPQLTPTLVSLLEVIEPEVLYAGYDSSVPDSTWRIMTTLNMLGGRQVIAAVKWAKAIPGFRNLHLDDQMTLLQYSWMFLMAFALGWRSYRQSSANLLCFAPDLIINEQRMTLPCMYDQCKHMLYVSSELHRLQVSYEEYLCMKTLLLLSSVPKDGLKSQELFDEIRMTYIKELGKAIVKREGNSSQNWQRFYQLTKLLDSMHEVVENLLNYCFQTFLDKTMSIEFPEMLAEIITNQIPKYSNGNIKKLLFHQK
# How it was run: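 A549 cell extract (50–200 ug) incubated with 1.86 nM [3H]-dexamethasone and test compound for 16 h at 4 °C in Tris-HCl pH 7.2 buffer with glycerol and molybdate. Unbound radioligand removed by dextran-coated charcoal, then supernatant bound counts measured by scintillation.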
# human MR = biological target: T2, human MR (Homo sapiens, UniProt P08235); assay: Mineralocorticoid Receptor Binding Assay ([3H]-aldosterone); conditions: [3H]-aldosterone binding, human MR expressed in Sf9 cells; read-out: MR Ki
# T2 construct: The full length human MR gene is cloned from a human kidney or human brain cDNA library; His tag from the pAcHLT vector (own knowledge); made in house; host or cells: Sf9 insect cells (baculovirus, pAcHLT transfer vector)
# T2 sequence (P08235 1-984): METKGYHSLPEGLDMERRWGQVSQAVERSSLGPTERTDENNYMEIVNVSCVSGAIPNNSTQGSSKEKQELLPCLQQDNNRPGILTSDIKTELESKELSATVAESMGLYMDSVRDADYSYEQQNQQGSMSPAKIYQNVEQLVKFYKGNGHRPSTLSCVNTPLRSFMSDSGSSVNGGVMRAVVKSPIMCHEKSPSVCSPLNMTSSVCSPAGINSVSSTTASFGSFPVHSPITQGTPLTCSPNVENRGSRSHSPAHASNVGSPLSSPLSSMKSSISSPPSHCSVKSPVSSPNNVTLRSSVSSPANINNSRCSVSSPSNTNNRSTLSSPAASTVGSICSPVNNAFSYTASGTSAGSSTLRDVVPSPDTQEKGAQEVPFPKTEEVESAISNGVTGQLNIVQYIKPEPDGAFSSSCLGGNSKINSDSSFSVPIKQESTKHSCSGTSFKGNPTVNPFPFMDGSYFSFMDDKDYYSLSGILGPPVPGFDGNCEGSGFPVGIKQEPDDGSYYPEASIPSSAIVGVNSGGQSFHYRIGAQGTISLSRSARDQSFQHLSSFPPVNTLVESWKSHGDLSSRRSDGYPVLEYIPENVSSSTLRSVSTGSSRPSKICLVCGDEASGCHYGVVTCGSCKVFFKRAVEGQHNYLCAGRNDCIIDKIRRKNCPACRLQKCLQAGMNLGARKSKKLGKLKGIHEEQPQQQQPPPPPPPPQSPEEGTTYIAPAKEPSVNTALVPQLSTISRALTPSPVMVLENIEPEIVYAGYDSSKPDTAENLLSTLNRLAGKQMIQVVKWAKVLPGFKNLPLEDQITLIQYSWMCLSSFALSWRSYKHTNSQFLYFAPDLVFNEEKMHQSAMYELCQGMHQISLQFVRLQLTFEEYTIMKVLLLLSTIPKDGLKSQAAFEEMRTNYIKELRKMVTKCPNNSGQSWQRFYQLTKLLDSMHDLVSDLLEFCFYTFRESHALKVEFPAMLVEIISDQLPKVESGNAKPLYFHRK
# How it was run: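 Lysate supernatant of Sf9 cells expressing full-length human MR (20-25 μg protein) was incubated with 0.5 nM [3H]-aldosterone and test compound in molybdate/Tris/phosphate/glycerol buffer, pH 7.5, ~16 h at 4 °C. Bound ligand was filtered and counted by scintillation; IC50 is the concentration halving [3H]-aldosterone binding.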
Structure (SMILES),Ki (glucocorticoid receptor) [nM],Ki (human MR) [nM],melting point [°C]
"Oc1cccc(/C=C2\c3ccc(Cl)cc3CCc3cccnc32)c1 [Example 245, 3-(8-Chloro-5,6-dihydro-benzo[5,6]cyclohepta[1,2-b]pyridin-11-ylidenemethyl)-phenol]",< 10000,< 500,> 250
"O=c1[nH]c2ccc(C=C3c4ccc(F)cc4CCc4cc(F)ccc43)cc2[nH]1 [Example 437, 5-(2,8-difluoro-10,11-dihydro-dibenzo[a,d]cyclohepten-5-ylidenemethyl)-1,3-dihydro-benzoimidazol-2-one]",< 1000,< 500,257
"Nc1cccc(C=C2c3ccccc3CCc3ccccc32)c1 [Example 86, 3-(10,11-Dihydro-dibenzo[a,d]cyclohepten-5-ylidenemethyl)-phenylamine]",< 500,< 500,204.3
"Oc1cccc(/C=C2/c3ccc(Cl)cc3CCc3cccnc32)c1 [Example 244, 3-(8-Chloro-5,6-dihydro-benzo[5,6]cyclohepta[1,2-b]pyridin-11-ylidenemethyl)-phenol]",< 10000,< 500,221.2
"Oc1ccc(C=C2c3ccccc3CCc3ccccc32)cc1O [Example 62, 4-(10,11-Dihydro-dibenzo[a,d]cyclohepten-5-ylidenemethyl)-benzene-1,2-diol]",< 10000,< 500,138
"N#Cc1cccc(C=C2c3ccccc3CCc3ccccc32)c1 [Example 81, 3-(10,11-Dihydro-dibenzo[a,d]cyclohepten-5-ylidenemethyl)-benzonitrile]",< 10000,< 500,115.7
"Oc1ccc(C=C2c3ccccc3CCc3ccccc32)cc1 [Example 60, b-(10,11-Dihydro-dibenzo[a,d]cyclohepten-5-ylidenemethyl)-phenol]",< 10000,< 500,56.9
"CS(=O)(=O)Nc1ccc(C=C2c3ccccc3CCc3ccccc32)cc1 [Example 99, N-[4-(10,11-Dihydro-dibenzo[a,d]cyclohepten-5-ylidenemethyl)-phenyl]-methanesulfonamide]",< 1000,< 500,210.7
"COc1cccc(C=C2c3ccccc3CCc3ccccc32)c1 [Example 32, 5-(3-Methoxy-benzylidene)-10,11-dibydro-5H-dibenzo-[a,d]cycloheptene]",< 1000,< 500,83

# More lines, now with the values ahead:
Ki (glucocorticoid receptor) [nM],Ki (human MR) [nM],melting point [°C],Structure (SMILES)
< 500,< 500,252.1,"O=C(Nc1ccc(C=C2c3ccccc3CCc3ccccc32)cc1)c1ccncc1 [Example 117, N-[4-(10,11-Dihydro-dibenzo[a,d]cyclohepten-5-ylidenemethyl)-phenyl]-isonicotinamide]"
< 500,< 500,106.4,"O=Cc1ccc(C=C2c3ccccc3CCc3ccccc32)cc1 [Example 68, 4-(10,11-Dihydro-dibenzo[a,d]cyclohepten-5-ylidenemethyl)-benzaldehyde]"
< 500,< 500,185.4,"N#Cc1ccccc1C=C1c2ccccc2CCc2ccccc21 [Example 80, 2-(10,11-Dihydro-dibenzo[a,d]cyclohepten-5-ylidenemethyl)-benzonitrile]"
< 500,< 500,149.3,"Cc1noc(C)c1S(=O)(=O)Nc1cccc(C=C2c3ccccc3CCc3ccccc32)c1 [Example 94, 3,5-Dimethyl-isoxazole-4-sulfonic acid [3-(10,11-dihydro-dibenzo[a,d]cyclohepten-5-ylidenemethyl)-phenyl]-amide]"
< 500,< 500,180.2,"CCS(=O)(=O)Nc1cccc(C=C2c3ccccc3CCc3ccccc32)c1 [Example 91, Ethanesulfonic acid [3-(10,11-hydro-dibenzo[a,d]cyclohepten-5-ylidenemethyl)-phenyl]-amide]"
